Results on seven compounds are retold here after patent publication US5824652A, “Heterocyclic acyldipeptides, processes for the preparation thereof and pharmaceutical compositions containing the same” (Univerza v Ljubljani, Fakulteta za naravoslovje in …, priority 1993, dated 1998).

Data set [1] can be described thus: Toxicity, average lethal dose (LD50). The conditions noted are these: male mice, intravenous application. It counts as in vivo.
Data set [2] relates to lymphocytes B. Nature of the data set: Determination of haemolytic plaques for the assessment of the maturation of lymphocytes B. It counts as in vivo. The conditions noted are these: mice immunized with sheep erythrocytes, n = 5. The protocol: A suspension of sheep erythrocytes (Institute of Microbiology, Faculty of Medicine, Ljubljana, Slovenia) in physiological saline (10^8 /ml) was used for the immunization. […] Romurtide was dissolved in a solution of D-manitol (45 mg/ml; Nopia) and compound 1 was dissolved in physiological saline. The immunization was completed on day 5 after the administration of sheep erythrocytes and the mice were sacrificed. Their spleens were removed and homogenized in Gibco 199 medium. The lymphocytes were separated on the Ficol separating medium (Pharmacia, Uppsala, Sweden). After repeated rinsing with Gibco 199 medium, the cells were resuspended in RPMI 1640 nutrient medium with added 10% of foetal calf serum and streptomycin. To 50 μl of the cell suspension, 450 μl of trypan blue were added and the cells were counted in Neubauer's chamber. The number of lymphocytes per ml of the cell suspension was calculated. To 100 μl of the diluted cell suspension, there were added 200 μl of the RPMI 1640 nutrient medium, 50 μl of a 10% suspension of sheep erythrocytes and 50 μl of guinea pig complement (Institute for Microbiology, Faculty of Medicine, Ljubljana, Slovenia). The reaction mixture (RM) was put into the prepared chambers on the slide, the chambers were sealed with white wax and incubated at 37° C. for 60 minutes. After the completion of the incubation, the plaques were counted under microscope. The number of plaques per 1×10^6 cells was calculated according to the following equations: [formula] In the table, the values are presented as stimulation indexes (number of plaques in the test group/number of plaques in the control group).

Data set [3] has as its system Candida albicans. Nature of the data set: Immunorestoration test (cyclophosphamide-immunosuppressed mice challenged with Candida albicans). Type of data set: in vivo. The conditions noted are these: for Number of survivals: Candida albicans challenge, n = 10. Here is the method:
The test substance or a vehicle was administered i.p. to groups of 10 mice on days 1, 3 and 5 of the experiment in four different doses (0.1, 1, 10 and 100 mg/kg). Cyclophosphamide (30 mg/kg) was administered p.o. on days 2, 4, and 6. One day after the last immunosuppressant (cyclophosphamide) dose, the mice were challenged with a suspension of Candida albicans sufficient to result in the mortality of a predominant number of the animals.

Data set [4] in a line: Pyrogenous activity according to the method of USPXXII. It counts as in vivo. The protocol:
The pyrogenous activity was determined according to the method of USPXXII.

The test system of data set [5] is B-16 melanoma. Nature of the data set: Antitumor activity, solid subcutaneous B-16 melanoma. It counts as in vivo, C57B1/6 strain mice. The conditions noted are these: 10 mg/kg on five consecutive days, started 24 hours after tumor induction; for Animals with complete regression of tumors: still without tumors on day 20. The protocol:
Solid subcutaneous B-16 melanoma were used on C57B1/6 strain mice of 8 to 10 weeks. The tumors were implanted by injection of 3×10^5 live tumor cells into the left lower abdomen of mice. The suspension of tumor cells was prepared in ENAM (Eagle's Minimal Essential Medium, Sigma Chemical Co., St. Louis, Mo., U.S.A.) enriched with 2% foetal calf serum (FCS, Sigma). Tumor cells (B-16 melanoma tumor cells, clone F1, ATCC, Rockville, Md.) for implantation into test animals were grown in vitro in a cell culture. The application of the test substances was started 24 hours after the tumor induction. The test substance was injected five times on five consecutive days in a dose of 10 mg/kg, the dose of Nopia was 1 mg/kg of test animals daily (a fivefold human dose). The antitumor activity of the active compounds was monitored by recording the tumor emergence, daily measuring the tumor diameters and calculating the tumour volumes.

[6] abbreviates: 0.1 mg/kg × 3 i.p. + cyclophosphamide 30 mg/kg p.o.
Setting [7] is: 1 mg/kg × 3 i.p. + cyclophosphamide 30 mg/kg p.o.
[8] abbreviates: 10 mg/kg × 3 i.p. + cyclophosphamide 30 mg/kg p.o.
The mark [9] stands for this setting: 100 mg/kg × 3 i.p. + cyclophosphamide 30 mg/kg p.o.

For `C[C@H](NC(=O)C1(C)Oc2ccccc2N(C)C1=O)C(=O)N[C@H](CCC(=O)O)C(N)=O` (stereo partly drawn) [Compound 1, N-(3,4-Dihydro-2,4-dimethyl-3-oxo-2H-1,4-benzoxazine-2-carbonyl)-L-alanyl-D-isoglutamine], the “average lethal dose (LD50)” value in data set [1] is listed as above 250 mg/kg. Besides, the entries for the “Stimulation index (number of plaques in the test group/number of plaques in the control group)” value in data set [2] (dose 1 μ/mouse) and in data set [2] (dose 10 μ/mouse) were 3.64 and 5.32, respectively. Further, the Number of survivals is on record as 6 in data set [3] (setting [6]), 6 in data set [3] (setting [7]), 7 in data set [3] (setting [8]) and 6 in data set [3] (setting [9]). The “Dose achieving the immunorestorative effect, times lower in comparison with the related compounds of U.S. Pat. No. 5,231,216” value in data set [3] (comparison across i.p. doses 0.1-100 mg/kg) is “up to 100 times”. For the same compound, in data set [3] (mouse, in vivo), the “Immunorestorative activity compared with romurtide” value is “superior to that of the MDP analogue romurtide”. In addition, in data set [4], the Pyrogenous activity result is “did not show any pyrogenous activity”.

Turning to `C[C@@H](NC(=O)C1(C)Oc2ccccc2NC1=O)C(=O)N[C@H](CCC(=O)O)C(N)=O` (stereo partly drawn) [Compound 2, (2R)-N-(3,4-dihydro-2-methyl-3-oxo-2H-1,4-benzoxazine-2-carbonyl)-L-alanyl-D-isoglutamine], the “Animals with complete regression of tumors” value in data set [5] is “two of eight animals”.

Take `C[C@H](NC(=O)C1(C)Oc2ccccc2NC1=O)C(=O)N[C@H](CCC(=O)O)C(N)=O` (stereo partly drawn) [Compound 3, N-(3,4-dihydro-2-methyl-3-oxo-2H-1,4-benzoxazine-2-carbonyl)-L-alanyl-D-isoglutamine]: in data set [5], the “Animals still without tumors on day 20 after the tumor induction” value is reported as “three animals of nine”.

Consider `C[C@H](NC(=O)C1(C)Oc2ccccc2N(C)C1=O)C(=O)N[C@H](CCC(=O)O)C(N)=O` (stereo partly drawn) [Compound 4, (2S)-N-(3,4-dihydro-2,4-dimethyl-3-oxo-2H-1,4-benzoxazine-2-carbonyl)-L-alanyl-D-isoglutamine], for which the “Animals with complete regression of tumors” value in data set [5] is “one of nine animals”.

For `O=P1(N(CCCl)CCCl)NCCCO1` (stereo not drawn) [Cyclophosphamide, reference compound], the Number of survivals in data set [3] (cyclophosphamide alone 30 mg/kg × 3 p.o.) was found to be 3.

`CCCCCCCCCCCCCCCCCC(=O)NCCCC[C@H](NC(=O)CC[C@@H](NC(=O)[C@H](C)NC(=O)[C@@H](C)O[C@H]1[C@H](O)[C@@H](CO)OC(O)[C@@H]1NC(C)=O)C(N)=O)C(=O)O` (stereo partly drawn) [Romurtide, romurtide, reference compound]: the “Stimulation index (number of plaques in the test group/number of plaques in the control group)” value in data set [2] (dose 1 μ/mouse) was found to be 1.06; in data set [2] (dose 10 μ/mouse) it was 1.92. Besides, the Number of survivals in data set [3] (setting [6]) is listed as 5.

Regarding `CCCCCCCCCCCC(=O)N[C@@H]1CCCC[C@H]1OCC(=O)N[C@@H](C)C(=O)N[C@H](CCC(=O)O)C(N)=O` [U.S. 5,231,216, N[trans2-(2dodecanoylaminocyclohexyloxy)acetyl)L-alanyl-D-isoglutamine, reference compound], the Number of survivals in data set [3] (setting [6]) is recorded as 2; in data set [3] (setting [7]), 5; in data set [3] (setting [8]) it was 6; in data set [3] (setting [9]) it was 6.
